Tests used:
[1] = test system: Influenza A, B and Rhino virus; experiment: Group B randomized double blind trial in uncomplicated viral upper respiratory tract infection, with case reports; type: in vivo, human; conditions: for clinical state at day 5 after starting treatment: n=5 per group; for clinical state: influenza type B
Excerpt: RT-PCR (reverse transcriptase-PCR) was used for subtyping and for detection of rhinovirus. RT-PCR is done on swabs. In the case of the patient groups, RT-PCR determined the presence of subtypes influenza H3, rhino virus and RSV. IFA and RT-PCR was repeated after treatment to ensure viral eradication from the patient.
Group B patients included 20 patients, aged 19 years to 57 years, 14 men and 6 women, with influenza but uncomplicated upper airway infection. […] The viruses identified were Influenza A, B and Rhino virus.
On day 3-5 of the illness (influenza) they received either a zinc/trimethoprim mixture, zinc, trimethoprim alone or vitamin C alone in a randomized double blind trial. The subjects were reviewed at 2 and 5 days after starting treatment.
The Tri-Z dose ranged between 100 mg (82 mg Tri and 18 mg zinc) to 200 mg (164 mg Tri and 36 mg zinc) twice daily. Trimethoprim only was administered in quantities of between 100 mg and 200 mg twice daily. Zinc only was administered in quantities of 50 mg three times daily. Vitamin C was administered in 1 g quantities twice daily.
Points on the graph shown in FIG. 6 are group means (for n=5) which highlights the difference in illness duration. […] Repeat IFA and RT-PCR tests were negative by day 2.
(i) person presented with headache, no photophobia, body ache, feeling tired and lethargic, blocked runny nose, dry throat and feeling hot for the last 4 days. Temperature was 38.5 C, respiratory rate 18/min, heart rate 75/min regular, BP 115/70 mmHg, clear nasal discharge, blood shot eyes, clear throat. Chest was clear with normal breath sounds. No cervical lymph nodes.
Nasal aspirate and throat swab was taken for virus and bacteria. […] Cultures were negative for bacterial growth at 48 and 72 hours.
They were commenced on the zinc/trimethoprim mixture twice daily (initial dose 200 mg of trimethoprim and 100 mg zinc sulphate for first dose then reduced to 100 mg of trimethoprim and 50 mg of zinc sulphate given simultaneously on an empty stomach) for 5 days.
(ii) person presented with body ache, generally feeling tired, blocked runny nose, sore eyes, dry throat, headache and feeling hot for the last 4 days. Their temperature was 38 C. Their chest was clear with normal breath sounds. Respiratory rate 16/min, heart rate 84/min regular, BP 135/78 mmhg. Nasal aspirate and throat swabs was taken for virus and bacteria.
Bacterial culture at 48 and 72 hours were negative.
(iii) person presented with feeling hot, blocked nose that is runny, headache, body ache, dry cough, sore eyes for last 4 days.
Temperature was 38.5 C, heart rate 60/min, respiratory rate 16/min, BP 120/70 mmHg, chest clear with normal breath sounds, no lymphadenopathy, conjunctival congestion, throat clear.
Nasal aspirate and throat swab were taken for virus and bacteria. They were started on Trimethoprim 200 mg twice daily for 5 days.

[2] = test system: viral replication; conditions: cited from earlier work
[3] = case (ii) person, day 5 after treatment

SMILES: O=C1O[C@H]([C@@H](O)CO)C(O)=C1O [vitamin C]
- clinical state at day 5 after starting treatment [1]: not back to normal

SMILES: [Zn] [zinc]
- clinical state at day 5 after starting treatment [1]: not back to normal
- concentration in a subject that affects viral replication [2]: 0.05 mMolar

SMILES: O=S(=O)([O-])[O-].[Zn+2] [zinc sulphate]
- repeat viral test ([1]; case (ii) person, 2 days after treatment): influenza type B
- control of symptoms [1, 3]: ineffective
- nasal aspirate viral test [1, 3]: influenza type B
- clinical state ([1]; case (ii) person, 100 mg twice daily, 2 days after treatment): the same
- day of the illness of return to work ([1]; case (ii) person, still feeling unwell): 14 days

SMILES: COc1cc(Cc2cnc(N)nc2N)cc(OC)c1OC [trimethoprim, 5-(3,4,5-trimethoxybenzyl)pyrimidine-2,4-diamine]
- nasal aspirate viral test ([1]; case (iii) person, day 5 of treatment): influenza type B
- temperature ([1]; case (iii) person, day 5 of treatment, 38.5 C before): 37.8 C
- clinical state ([1]; case (iii) person, 200 mg twice daily, 2 days later): the same
- day of the illness when recovery started ([1]; case (iii) person, well enough to go back to work): 14 days
- clinical state at day 5 after starting treatment [1]: not back to normal
